What was measured:
[1] = test system: B16-F1 cells; experiment: B16 cell melanin synthesis assay; type: cell-based, murine; settings: FIG. 4; for effect on melanin synthesis (% MS): increasing concentration (w/v %)
From the text: Determining test agents suitable as ADRβ1 antagonists, ADRβ2 antagonists, or combinations thereof may utilize a melanin synthesis assay selected from the group consisting of a B16 cell assay or a skin model. The B16-F1 cells, which are murine melanoma cells obtained from American Tissue Culture Collection (ATCC), contain the synthetic machinery for melanin production and respond to some benchmark whitening/tanning agents. The following experiment depicts one exemplary method of determining the effect of test agents on melanin synthesis. In the experiment, 0.5 mL of B16-F1 cells are added to 29.5 ml of B16-F1 culture media to 2 separate T-150 flasks, and grown to near (˜80% ) confluency. The culture media B16-F1 comprises the following components as shown in Table 1 below: The cells from the T-150 flasks were trypsinized and counted with a hemacytometer. Then, cell vials (1×10^6 cell aliquots) were frozen in a mixture comprising 95% B16-F1 culture medium and 5% DMSO (Dimethyl sulfoxide) and placed in liquid Nitrogen. All cell culture reagents (except trypsin) were heated in a 37° C. water bath. On day zero, 29 mL of B16-F1 culture media was placed into a T-150 flask at 37° C. Then, a vial of the frozen cells was obtained, thawed in a 37° C. water bath, and placed in the T-150 flask. The flask was agitated to mix the cells with the media, and then the flask was incubated for 3 days at 37° C. in a humidified environment comprising 5% CO2. On day 3, the cells from the flask were trypsinized and the cell density was determined. At which point, the cells were split into a 96-well plate with 2,500 cells per well. At day 5, the cells were treated with the test agents. On day 7, the cells were assayed for melanin production and toxicity. […] As stated above, ADRβ1 and ADRβ2 stimulation result in elevated cAMP levels which drive tyrosinase production in known melanogenesis pathways.

[2] = test system: human skin explants; experiment: Pigmentation gene expression in human skin explants; type: cell-based; settings: compared with Stem Cell Factor & Endothelin (Endo-SCF), FIG. 5
From the text: FIG. 5 is a graphical illustration depicting the effect of dobutamine on human skin explants.
As stated above, ADRβ1 and ADRβ2 stimulation result in elevated cAMP levels which drive tyrosinase production in known melanogenesis pathways.

[3] = target: ADRβ1 receptors (Homo sapiens, UniProt P08588); experiment: ADRβ1 receptor antagonist screening (half maximal inhibitory concentration); type: binding
Chain of ADRβ1 receptors (P08588 whole entry): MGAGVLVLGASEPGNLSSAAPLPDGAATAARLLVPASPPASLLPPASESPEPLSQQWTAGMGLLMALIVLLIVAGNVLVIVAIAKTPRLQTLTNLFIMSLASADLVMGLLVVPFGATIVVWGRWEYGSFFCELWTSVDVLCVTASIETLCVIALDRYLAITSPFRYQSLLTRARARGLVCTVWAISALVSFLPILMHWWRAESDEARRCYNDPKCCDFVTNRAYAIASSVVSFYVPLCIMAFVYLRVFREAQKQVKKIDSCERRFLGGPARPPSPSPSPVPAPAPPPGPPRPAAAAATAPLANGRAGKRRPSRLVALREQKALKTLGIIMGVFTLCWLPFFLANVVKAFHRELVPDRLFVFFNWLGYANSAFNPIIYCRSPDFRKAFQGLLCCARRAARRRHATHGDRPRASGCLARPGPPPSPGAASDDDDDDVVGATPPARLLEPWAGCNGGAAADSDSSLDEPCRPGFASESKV
From the text: Based on these inventive discoveries, a screening method for determining at least one test agent effective for modifying the appearance of pigmented skin is provided. The method comprises contacting a cell, a cell culture, or bulk cells with the test agent, wherein the cell, the cell culture, or the bulk cells comprise ADRβ1 receptors, and determining based on the binding interaction of the test agent with the ADRβ1 receptors whether the test agent is an effective ADRβ1 receptor antagonist suitable for modifying the appearance of pigmented skin, wherein a test agent is considered to be an effective ADRβ1 receptor antagonist when it defines a half maximal inhibitory concentration of less than about 1000 ppm.
The method further comprises determining whether test agents are effective for improving the appearance of pigmented skin if the test agent is an antagonist of the ADRβ1 receptors. In one embodiment, the test agent may be identified as an ADRβ1 receptor antagonist if the test agent defines a half maximal inhibitory concentration (IC50) of less than about 1000 ppm. In further embodiments, the ADRβ1 receptor antagonist defines a half maximal inhibitory concentration of less than about 100 ppm, or less than about 50 ppm. By utilizing this metric of maximal inhibitory concentration, it is possible to correlate the antagonistic activity of the ADRβ1 receptor antagonists with an ability of the ADRβ1 receptor antagonists to improve the appearance of hyper-pigmented spots in human skin. In further embodiments, when the ADRβ1 receptor antagonists bind to the ADRβ1 receptors, a luminescent reference signal may be generated, which may be measured by a luminometer, a fluorescence plate reader, or a fluorometer.
As shown below in Table 2, the present inventors have further recognized that modifying a test agent from a peptide to a palmitoylated peptide greatly improves its efficacy as an ADRβ1 inhibitor.

| Compound | ADRβ1 IC 50 (ppm) [3] | also measured |
| --- | --- | --- |
| CC(CCc1ccc(O)cc1)NCCc1ccc(O)c(O)c1 (stereo not shown) [dobutamine] |  | effect on melanin synthesis (% MS) [1]: increases the melanin synthesis; pigmentation gene expression [2]: induces pigmentation gene expression in human skin explants more than the paracrine factors |
| CC(C)NCC(O)c1ccc(O)c(O)c1 (stereo not shown) [isoprenaline] |  | melanin synthesis (% MS) ([1]; as the concentration of isoprenaline increased): ~300%; effect on melanin synthesis (% MS) [1]: increases the melanin synthesis |
| AcetylGHK | 45 ppm |  |
| GQPR | 1200 ppm |  |
| palGQPR [palmitoylated GQPR peptide] | 0.23 ppm |  |

Now from value to compound, other results behind:

| ADRβ1 IC 50 (ppm) [3] | Compound | also measured |
| --- | --- | --- |
| 45 ppm | AcetylGQPR [acetyl-modified GQPR peptide] |  |
| 1100 ppm | GHK |  |
| 3.3 ppm | palGHK |  |
